Measurements as given in article PMC4047164 (Biochimica et biophysica acta, 2014).
Converted amounts (≈) assume the structure as drawn. Read-outs that look alike come from different tables or passages of the source.

Assays:
NdhC [1] = biological target: T1, NdhC (Staphylococcus aureus, UniProt Q2YWP9); assay: Inhibition of purified NdhC NADH dehydrogenase activity with DMN in detergent; type: biochemical, S. aureus; details: read-out: % of Inhibition by 50 μM phenothiazines, NdhC, DMN
S. aureus [2] = assay: Drug susceptibility determination; type: cell-based; details: Staphylococcus aureus, 20 h
S. aureus [3] = details: cited from earlier work
S. aureus cells = assay: Membrane potential of intact cells by DisC3; type: cell-based
[4] = system: inverted membrane vesicles from E. coli; type: biochemical; details: NADH-energized vesicles
[5] = system: inverted membrane vesicles from E. coli; type: biochemical
S. aureus membranes = assay: NADH-driven respiration; type: biochemical; details: for Inhibition of NADH-dependent oxygen consumption: 50 μM compound, membranes ∼ 200 μg/ml
[6] = system: isolated rat liver mitochondria; details: cited from earlier work
NdhF [7] = biological target: T2, NdhF (Staphylococcus aureus, UniProt Q2FZW0); assay: biochemical; details: read-out: % of Inhibition by 50 μM phenothiazines, NdhF, Q8
NdhC [8] = biological target: T1, NdhC; assay: biochemical; design: species or system S. aureus; details: read-out: % of Inhibition by 50 μM phenothiazines, NdhC, Q8
NdhF [9] = biological target: T2, NdhF; assay: biochemical; details: read-out: % of Inhibition by 50 μM phenothiazines, NdhF, DMN
[10] = Figure 5 legend, concentration not given
[11] = control agents, Figure S5, concentration not given

T1 sequence (Q2YWP9 whole entry): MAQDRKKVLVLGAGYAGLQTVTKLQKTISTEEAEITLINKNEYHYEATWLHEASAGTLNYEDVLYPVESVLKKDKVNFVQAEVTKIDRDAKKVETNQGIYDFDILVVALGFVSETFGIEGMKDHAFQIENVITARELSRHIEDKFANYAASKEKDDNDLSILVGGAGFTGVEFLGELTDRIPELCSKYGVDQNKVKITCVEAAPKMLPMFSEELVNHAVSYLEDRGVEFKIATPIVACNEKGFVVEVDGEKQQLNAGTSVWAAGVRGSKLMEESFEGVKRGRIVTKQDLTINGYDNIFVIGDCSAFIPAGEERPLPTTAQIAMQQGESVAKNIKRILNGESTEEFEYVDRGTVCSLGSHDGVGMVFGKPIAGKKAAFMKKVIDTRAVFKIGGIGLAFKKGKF

SMILES	inhibition at 50 µM (NdhC [1]) [%]	MIC (S. aureus [2]) [µM]	reported MIC values for inhibition of growth (S. aureus [3]) [µM]	Effect on membrane potential (Oxonol VI fluorescence) [4, 10]	Inhibition of NADH-dependent oxygen consumption (S. aureus membranes)	Effect on pH gradient (ACMA fluorescence) [5, 11]	other results
CN(C)CCCN1c2ccccc2Sc2ccc(Cl)cc21 [CPZ, Chlorpromazine]	73 ± 8	170 ± 15 (≈ 54.2 µg/mL)	90 to 125				
N#CC(C#N)=NNc1cccc(Cl)c1 [CCCP]							Effect on membrane potential (DisC3(5) fluorescence) (S. aureus cells; 1 μM CCCP, validation control): rapid collapse of the membrane potential
CSc1ccc2c(c1)N(CCC1CCCCN1C)c1ccccc1S2 (stereo not shown) [TZ, Thioridazine]		70 ± 9 (≈ 25.9 µg/mL)	40 to 60	dissipation of the membrane potential	fully inhibited		Effect on membrane potential (Oxonol VI fluorescence) ([4]; 10 μM TZ): completely dissipated; Effect on pH gradient (ACMA fluorescence) ([5]; 3 μM TZ, gradient generated by the ATPase or by succinate-driven respiration): completely collapse the pH gradient; Uncoupler activity [6]: weak uncoupler of oxidative phosphorylation; Effect on membrane potential (DisC3(5) fluorescence) (S. aureus cells; 50 μM TZ): rapid collapse of the membrane potential; Effect on membrane potential (DisC3(5) fluorescence) (S. aureus cells; different TZ concentrations, immediate, concentration-dependent (Figure 3A)): collapse of the membrane potential
C(=NC1CCCCC1)=NC1CCCCC1 [DCCD]						collapse of the pH gradient	
CC(C)(C)c1cc(C=C(C#N)C#N)cc(C(C)(C)C)c1O [SF6847]				dissipation of the membrane potential		collapse of the pH gradient	
CN1CCN(CCCN2c3ccccc3Sc3ccc(C(F)(F)F)cc32)CC1 [TPZ, Trifluoperazine]	54 ± 6	70 ± 10 (≈ 28.5 µg/mL)	40 to 60		fully inhibited		inhibition at 50 µM (NdhF [7]): 0%; NADH-driven respiration in presence of 50 μM TPZ (S. aureus membranes; 50 μM TPZ, uninhibited activity 659 ± 28): 8 ± 1 μmole O2 mg^-1 protein s^-1; IC50 (S. aureus membranes; read-out: IC50, respiration of S. aureus membranes, NADH as electron donor): 18.5 ± 3 µM; inhibition at 50 µM (NdhC [8]): 80 ± 10%; inhibition at 50 µM (NdhF [9]): 0%
